# Experimental data: the NIST ThermoML archive (doi:10.1016/j.jct.2011.12.005)
# ± gives the expanded uncertainty stated by the source.
# Experiments:
# [1] = for Normal melting temperature: Crystal, DTA
# [2] = Molar enthalpy of transition or fusion
# [3] = Crystal 2, Differential scanning calorimeter
Normal melting temperature [1],"Molar enthalpy of transition or fusion ([2]; Crystal, DSC)","Triple point temperature [1, 3]","Molar enthalpy of transition or fusion [2, 3]",SMILES
49 ± 0.4 °C,4.16 ± 0.12 kcal/mol,–,–,Cc1ccc(C(C)C)c(O)c1 [3-methyl-6-isopropylphenol]
207.6 ± 0.5 °C,6.96 ± 0.191 kcal/mol,–,–,COc1cc(C(=O)O)ccc1O [4-hydroxy-3-methoxybenzoic acid]
171.8 ± 0.9 °C,7.62 ± 0.215 kcal/mol,–,–,COc1cc(C=CC(=O)O)ccc1O [4-hydroxy-3-methoxycinnamic acid]
232.2 ± 0.5 °C,4.28 ± 0.143 kcal/mol,405.8 K,0.621 kcal/mol,Cn1c(=O)c2c(ncn2C)n(C)c1=O [caffeine]
